Holding throughout (type): cell-based
The subject of series [1] is Klebsiella pneumoniae SSI #3010. As to conditions: SSI #3010. The procedure, abridged: (§1)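 CLSI broth microdilution in cation-adjusted Mueller-Hinton II broth with 0.002% Polysorbate 80, inoculum appr. 10^6 CFU/mL, peptides in serial two-fold dilutions. MIC (μg/mL) is the lowest concentration with no visible growth after 18-20 hours at 35° C.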
The next series relates to Escherichia coli 926415. As to conditions: 926415.
The test system of series [2] is Acinetobacter baumannii DSM 30008. As to conditions: DSM 30008. The procedure, abridged: as §1
In series [3] the test system is Klebsiella pneumoniae 968733. As to conditions: 968733.
Series [4] concerns Escherichia coli ATCC 25922. As to conditions: ATCC 25922. Summed up: as §1
The subject of series [5] is Pseudomonas aeruginosa ATCC 27853. As to conditions: ATCC 27853. Summed up:
as §1

Series [6] has as its system Acinetobacter baumannii 872842. As to conditions: 872842.
In series [7] the test system is human red blood cells (hRBC). The series can be described thus: Hemolysis of human red blood cells. As to conditions: red cells of human, 1 h, 100 μg/mL. The procedure, abridged:
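Washed fresh human erythrocytes (20% v/v, ~0.9×10^9 cells/mL final) were incubated with peptides at 100 μg/mL for 1 h at 37 °C with shaking. Supernatant OD540 measured; hemolysis expressed as % of 2.5% Triton X-100 lysis, with PBS/0.001% acetic acid as 0%.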

Molecules are shown by their SMILES. Where a SMILES comes first, the peptide text is derived from it. Bridges are numbered along the chain shown (N, C = ends). [ ]: non-standard residue; d: D form. Tle = CC(C)(C)[C@H](N)C(=O)O; Nle = CCCC[C@H](N)C(=O)O; Dab = NCC[C@H](N)C(=O)O; Aib = CC(C)(N)C(=O)O

On to `CCCC[C@@H]1NC(=O)[C@@H]2CCCN2C(=O)[C@H]2CCCN2C(=O)[C@H](CO)NC(=O)[C@H](C)NC(=O)[C@H](C(C)(C)C)NC(=O)[C@@H](NC(=O)[C@H](Cc2c[nH]c3ccccc23)NC(C)=O)CSSC[C@@H](C(=O)N[C@@H](C)C(=O)N[C@@H](CCN)C(=O)N[C@H](C(=O)N[C@@H](CCN)C(=O)N[C@H]2CCNC(=O)[C@H]([C@@H](C)O)NC(=O)[C@H](CCN)NC(=O)[C@H](CCN)NC(=O)[C@H](CC(C)C)NC(=O)[C@@H](Cc3ccccc3)NC(=O)[C@H](CCN)NC2=O)[C@@H](C)O)NC(=O)[C@H](Cc2ccc(O)cc2)NC(=O)[C@H](CO)NC1=O` [Ex. 28] (Ac-WC[Tle]AS[dP]P[Nle]SYCA[Dab]T[Dab][Dab][Dab][dF]L[Dab][Dab]T; disulfide 2-11; lactam 16-C), for which the “Klebsiella pneumoniae SSI #3010 MIC” value in series [1] came out at 0.25 mg/L. In the series on Escherichia coli 926415, the “Escherichia coli 926415 MIC” value was found to be 1.5 mg/L. Also, in series [2], the “Acinetobacter baumannii DSM 30008 MIC” value came to 0.5 mg/L. Besides, the “Klebsiella pneumoniae 968733 MIC” value in series [3] worked out at 0.375 mg/L. The “Escherichia coli ATCC 25922 MIC” value in series [4] was 0.25 mg/L. The “Pseudomonas aeruginosa ATCC 27853 MIC” value in series [5] was found to be 0.5 mg/L. For the same compound, the “Acinetobacter baumannii 872842 MIC” value in series [6] was 1 mg/L. In series [7], the “Hemolysis at 100 μg/mL” value is 1%.
Turning to `CCCC[C@@H]1NC(=O)[C@@H]2CCCN2C(=O)[C@H]2CCCN2C(=O)[C@H](CO)NC(=O)[C@H](C)NC(=O)[C@H](C(C)(C)C)NC(=O)[C@@H](NC(=O)[C@H](Cc2c[nH]c3ccccc23)NC(C)=O)CSSC[C@@H](C(=O)N[C@H](C)C(=O)N[C@@H](CCN)C(=O)N[C@H](C(=O)N[C@@H](CCN)C(=O)N[C@H]2CCNC(=O)[C@H]([C@@H](C)O)NC(=O)[C@H](CCN)NC(=O)[C@H](CCN)NC(=O)[C@H](CC(C)C)NC(=O)[C@@H](Cc3ccccc3)NC(=O)[C@H](CCN)NC2=O)[C@@H](C)O)NC(=O)[C@H](Cc2ccc(O)cc2)NC(=O)[C@H](CO)NC1=O` [Ex. 29] (Ac-WC[Tle]AS[dP]P[Nle]SYC[dA][Dab]T[Dab][Dab][Dab][dF]L[Dab][Dab]T; disulfide 2-11; lactam 16-C), the “Klebsiella pneumoniae SSI #3010 MIC” value in series [1] was 0.25 mg/L. Further, in the series on Escherichia coli 926415, the “Escherichia coli 926415 MIC” value was determined as 1 mg/L. Also, the “Acinetobacter baumannii DSM 30008 MIC” value in series [2] is 0.25 mg/L. For the same compound, the “Klebsiella pneumoniae 968733 MIC” value in series [3] is 1 mg/L. The “Escherichia coli ATCC 25922 MIC” value in series [4] came out at 0.125 mg/L. In addition, the “Pseudomonas aeruginosa ATCC 27853 MIC” value in series [5] amounted to 0.5 mg/L. For the same compound, in series [6], the “Acinetobacter baumannii 872842 MIC” value came out at 0.25 mg/L. In series [7], the “Hemolysis at 100 μg/mL” value was below 1%.
As to `CCCC[C@@H]1NC(=O)[C@@H]2CCCN2C(=O)[C@H]2CCCN2C(=O)[C@H](CO)NC(=O)[C@H](C)NC(=O)[C@H](C(C)(C)C)NC(=O)[C@@H](NC(=O)[C@H](Cc2c[nH]c3ccccc23)NC(C)=O)CSSC[C@@H](C(=O)NC(C)(C)C(=O)N[C@@H](CCN)C(=O)N[C@H](C(=O)N[C@@H](CCN)C(=O)N[C@H]2CCNC(=O)[C@H]([C@@H](C)O)NC(=O)[C@H](CCN)NC(=O)[C@H](CCN)NC(=O)[C@H](CC(C)C)NC(=O)[C@@H](Cc3ccccc3)NC(=O)[C@H](CCN)NC2=O)[C@@H](C)O)NC(=O)[C@H](Cc2ccc(O)cc2)NC(=O)[C@H](CO)NC1=O` [Ex. 30] (Ac-WC[Tle]AS[dP]P[Nle]SYC[Aib][Dab]T[Dab][Dab][Dab][dF]L[Dab][Dab]T; disulfide 2-11; lactam 16-C), the “Klebsiella pneumoniae SSI #3010 MIC” value in series [1] is 0.25 mg/L. In the series on Escherichia coli 926415, the “Escherichia coli 926415 MIC” value was determined as 1 mg/L. Besides, the “Acinetobacter baumannii DSM 30008 MIC” value in series [2] turned out to be 0.25 mg/L. In series [3], the “Klebsiella pneumoniae 968733 MIC” value came out at 0.25 mg/L. Moreover, the “Escherichia coli ATCC 25922 MIC” value in series [4] amounted to 0.25 mg/L. In addition, the “Pseudomonas aeruginosa ATCC 27853 MIC” value in series [5] was 0.5 mg/L. In addition, in series [6], the “Acinetobacter baumannii 872842 MIC” value came out at 1 mg/L. Also, the “Hemolysis at 100 μg/mL” value in series [7] is listed as below 1%.
For `CCCC[C@@H]1NC(=O)[C@@H]2CCCN2C(=O)[C@H]2CCCN2C(=O)[C@H](CO)NC(=O)[C@H](C)NC(=O)[C@H](C(C)(C)C)NC(=O)[C@@H](NC(=O)[C@H](Cc2c[nH]c3ccccc23)NC(C)=O)CSSC[C@@H](C(=O)N[C@@H](CCN)C(=O)NCC(=O)N[C@H](C(=O)N[C@@H](CCN)C(=O)N[C@H]2CCNC(=O)[C@H]([C@@H](C)O)NC(=O)[C@H](CCN)NC(=O)[C@H](CCN)NC(=O)[C@H](CC(C)C)NC(=O)[C@@H](Cc3ccccc3)NC(=O)[C@H](CCN)NC2=O)[C@@H](C)O)NC(=O)[C@H](Cc2ccc(O)cc2)NC(=O)[C@H](CO)NC1=O` [Ex. 31] (Ac-WC[Tle]AS[dP]P[Nle]SYC[Dab]GT[Dab][Dab][Dab][dF]L[Dab][Dab]T; disulfide 2-11; lactam 16-C), the “Klebsiella pneumoniae SSI #3010 MIC” value in series [1] was 0.25 mg/L. Besides, the “Escherichia coli 926415 MIC” value with Escherichia coli 926415 turned out to be 1.5 mg/L. In series [2], the “Acinetobacter baumannii DSM 30008 MIC” value is 0.125 mg/L. In addition, in series [3], the “Klebsiella pneumoniae 968733 MIC” value came out at 0.75 mg/L. The “Escherichia coli ATCC 25922 MIC” value in series [4] amounted to 0.5 mg/L. Besides, in series [5], the “Pseudomonas aeruginosa ATCC 27853 MIC” value was 1 mg/L. In addition, in series [6], the “Acinetobacter baumannii 872842 MIC” value was 1 mg/L. Besides, in series [7], the “Hemolysis at 100 μg/mL” value worked out at 2%.
`CCCC[C@@H]1NC(=O)[C@@H]2CCCN2C(=O)[C@H]2CCCN2C(=O)[C@H](CO)NC(=O)[C@H](C)NC(=O)[C@H](C(C)(C)C)NC(=O)[C@@H](NC(=O)[C@H](Cc2c[nH]c3ccccc23)NC(C)=O)CSSC[C@@H](C(=O)N[C@@H](CCN)C(=O)N[C@H](C(=O)N[C@H](C)C(=O)N[C@@H](CCN)C(=O)N[C@H]2CCNC(=O)[C@H]([C@@H](C)O)NC(=O)[C@H](CCN)NC(=O)[C@H](CCN)NC(=O)[C@H](CC(C)C)NC(=O)[C@@H](Cc3ccccc3)NC(=O)[C@H](CCN)NC2=O)[C@@H](C)O)NC(=O)[C@H](Cc2ccc(O)cc2)NC(=O)[C@H](CO)NC1=O` [Ex. 32] (Ac-WC[Tle]AS[dP]P[Nle]SYC[Dab]T[dA][Dab][Dab][Dab][dF]L[Dab][Dab]T; disulfide 2-11; lactam 16-C): the “Klebsiella pneumoniae SSI #3010 MIC” value in series [1] is 0.25 mg/L. Also, the “Escherichia coli 926415 MIC” value in the series on Escherichia coli 926415 came out at 0.5 mg/L. In series [2], the “Acinetobacter baumannii DSM 30008 MIC” value was found to be 0.125 mg/L. In series [3], the “Klebsiella pneumoniae 968733 MIC” value was determined as 1 mg/L. The “Escherichia coli ATCC 25922 MIC” value in series [4] worked out at 0.125 mg/L. In addition, the “Pseudomonas aeruginosa ATCC 27853 MIC” value in series [5] came to 0.25 mg/L. For the same compound, the “Acinetobacter baumannii 872842 MIC” value in series [6] is 0.25 mg/L. Besides, the “Hemolysis at 100 μg/mL” value in series [7] is listed as 2%.
Consider `CCCC[C@@H]1NC(=O)[C@@H]2CCCN2C(=O)[C@H]2CCCN2C(=O)[C@H](CO)NC(=O)[C@H](C)NC(=O)[C@H](C(C)(C)C)NC(=O)[C@@H](NC(=O)[C@H](Cc2c[nH]c3ccccc23)NC(C)=O)CSSC[C@@H](C(=O)N[C@@H](CCN)C(=O)N[C@H](C(=O)N[C@@H](CCN)C(=O)NCC(=O)N[C@H]2CCNC(=O)[C@H]([C@@H](C)O)NC(=O)[C@H](CCN)NC(=O)[C@H](CCN)NC(=O)[C@H](CC(C)C)NC(=O)[C@@H](Cc3ccccc3)NC(=O)[C@H](CCN)NC2=O)[C@@H](C)O)NC(=O)[C@H](Cc2ccc(O)cc2)NC(=O)[C@H](CO)NC1=O` [Ex. 33] (Ac-WC[Tle]AS[dP]P[Nle]SYC[Dab]T[Dab]G[Dab][Dab][dF]L[Dab][Dab]T; disulfide 2-11; lactam 16-C), for which the “Klebsiella pneumoniae SSI #3010 MIC” value in series [1] was 0.5 mg/L. The “Escherichia coli 926415 MIC” value in the series on Escherichia coli 926415 is 1 mg/L. In addition, the “Acinetobacter baumannii DSM 30008 MIC” value in series [2] was 0.125 mg/L. In series [3], the “Klebsiella pneumoniae 968733 MIC” value turned out to be 0.75 mg/L. The “Escherichia coli ATCC 25922 MIC” value in series [4] came to 0.25 mg/L. For the same compound, the “Pseudomonas aeruginosa ATCC 27853 MIC” value in series [5] came to 0.5 mg/L. In addition, in series [6], the “Acinetobacter baumannii 872842 MIC” value amounted to 0.25 mg/L. Moreover, the “Hemolysis at 100 μg/mL” value in series [7] was found to be 1%.
With `CCCC[C@@H]1NC(=O)[C@@H]2CCCN2C(=O)[C@H]2CCCN2C(=O)[C@H](CO)NC(=O)[C@H](C)NC(=O)[C@H](C(C)(C)C)NC(=O)[C@@H](NC(=O)[C@H](Cc2c[nH]c3ccccc23)NC(C)=O)CSSC[C@@H](C(=O)N[C@@H](CCN)C(=O)N[C@H](C(=O)N[C@@H](CCN)C(=O)N[C@@H](CCN)C(=O)N[C@H]2CCNC(=O)[C@H]([C@@H](C)O)NC(=O)[C@H](CCN)NC(=O)[C@H](CCN)NC(=O)[C@H](CC(C)C)NC(=O)[C@@H](Cc3ccccc3)NC(=O)[C@H](CCN)NC2=O)[C@@H](C)O)NC(=O)[C@H](Cc2ccc(O)cc2)NC(=O)[C@H](CO)NC1=O` [Ex. 34] (Ac-WC[Tle]AS[dP]P[Nle]SYC[Dab]T[Dab][Dab][Dab][Dab][dF]L[Dab][Dab]T; disulfide 2-11; lactam 16-C), the “Klebsiella pneumoniae SSI #3010 MIC” value in series [1] worked out at 0.125 mg/L. In addition, the “Escherichia coli 926415 MIC” value with Escherichia coli 926415 was 0.25 mg/L. Further, the “Acinetobacter baumannii DSM 30008 MIC” value in series [2] turned out to be 0.25 mg/L. In addition, in series [3], the “Klebsiella pneumoniae 968733 MIC” value came to 1 mg/L. Moreover, the “Escherichia coli ATCC 25922 MIC” value in series [4] is 0.0625 mg/L. Besides, the “Pseudomonas aeruginosa ATCC 27853 MIC” value in series [5] was determined as 0.125 mg/L. Also, the “Acinetobacter baumannii 872842 MIC” value in series [6] stood at 0.125 mg/L. The “Hemolysis at 100 μg/mL” value in series [7] turned out to be 1%.
